# Reference: patent publication US6482921B1, “Uridyl peptide antibiotic (UPA) derivatives, their synthesis and use” (Essential Therapeutics, Inc., priority 1999, dated 2002)
# How the values were obtained:
# Assay type in all cases: cell-based
# [1] = system: Pseudomonas aeruginosa PAM 1020; experiment: MIC broth microdilution, P. aeruginosa PAM 1020 (wild type); conditions: P. aeruginosa PAM 1020
# [2] = system: Pseudomonas aeruginosa PAM 1154; experiment: MIC broth microdilution, P. aeruginosa PAM 1154 (OprM::Hg); conditions: P. aeruginosa PAM 1154 OprM::Hg
# [3] = system: Pseudomonas aeruginosa PAM 1135; experiment: MIC broth microdilution, P. aeruginosa PAM 1135 (high level UPA resistance); conditions: P. aeruginosa PAM 1135 UPA1^r
# [4] = system: Pseudomonas aeruginosa PAM 1323; experiment: MIC broth microdilution, P. aeruginosa PAM 1323 (medium level UPA resistance)
# Procedure: Compounds were tested against several panels of bacteria. In a first panel, Table 3, several strains of Pseudomonas aeruginosa, Escherichia coli and Staphylococcus aureus were employed as the target bacteria.
# For the bacteria in Table 3, the assay was performed in Mueller-Hinton Broth (MHB) with a final bacterial inoculum of 5×10^5 CFU/ml and a final volume of 100 μl. Control drugs, including imipenem and pacidimycin 4, and the test compounds were prepared at a concentration which was twice the desired final concentration (256 μg/ml). Dilution of the controls and the test compounds was accomplished directly on the test plates by serial 2-fold dilution using a multi-channel pipette. Both a positive and a negative growth control was included in each plate.
# The bacterial inocula were prepared as follows. Bacterial strains were grown overnight at 35° C. in MHB. […] The culture was then diluted 1:10 and allowed to grow for an additional one hour at 35° C. in a shaking incubator. The inocula were then prepared by diluting the early log phase (one hour) cultures 1:2000 with fresh MHB. A volume of 50 μl of the inocula was added to each well, resulting in an inoculum of approximately 5×10^5 CFU/ml. The exact inocula were determined by putting 10 μl of 10-fold serial dilution of the bacterial suspensions onto TSA. After overnight incubation at 35° C., colony-forming units were counted manually.
# The microtiter plates were incubated for 20 hours at 35° C. and were then read using a microtiterplate reader (Molecular Devices) at 650 nm as well as being visually observed using a microtiterplate reading mirror.
# [5] = system: Escherichia Coli MC 4100; experiment: MIC broth microdilution, E. coli MC 4100 (wild type); conditions: E. coli MC 4100
# [6] = system: Escherichia Coli MC 4100 AcrAB; experiment: MIC broth microdilution, E. coli MC 4100 AcrAB (ΔAcrAB); conditions: E. coli AcrAB
# [7] = system: Escherichia Coli MC 4100 AcrAB UPA3r; experiment: MIC broth microdilution, E. coli MC 4100 AcrAB UPA3r (ΔAcrAB, UPA resistant); conditions: E. coli AcrAB UPA3^r
# [8] = system: Staphylococcus aureus ATCC 29213; experiment: MIC broth microdilution, S. aureus ATCC 29213 (wild type); conditions: S. aureus ATCC 29213
# [9] = system: Staphylococcus aureus 8325-4; experiment: MIC broth microdilution, S. aureus 8325-4 (wild type); conditions: S. aureus 8325-4
# [10] = system: Pasteurella multocida pm002; experiment: MIC broth microdilution, P. multocida pm002 (wild type)
Compound,MIC (μg/ml) Broth microdilution [1],MIC (μg/ml) Broth microdilution [2],MIC (μg/ml) Broth microdilution [3],MIC (μg/ml) Broth microdilution [4],MIC (μg/ml) Broth microdilution [5],MIC (μg/ml) Broth microdilution [6],MIC (μg/ml) Broth microdilution [7],MIC (μg/ml) Broth microdilution [8],MIC (μg/ml) Broth microdilution [9],MIC (μg/ml) Broth microdilution [10]
"1-[5′-[(2S,3S)-N^2-[N-[[(1S)-1-Carboxy-2-indol-3-ylethyl]carbamoyl]-L-alanyl]-N^3-L-3-hydroxyphenylalanyl-N^3-methyl-2,3-diaminobutyramidol-3′,5′-dideoxy-α-L-arabinofuranosyl]uracil [Compound 103]",16 µg/mL,8 µg/mL,>512 µg/mL,512 µg/mL,512 µg/mL,2 µg/mL,32 µg/mL,512 µg/mL,256 µg/mL,256 µg/mL
"1-[5′-[(2S,3S)-N^3-L-Alanyl-N^2-[(2R)-2-benzyl-N-[(1S)-1-carboxy-2-indol-3-ylethyl]succinimoyl]-N^3-methyl-2,3-diaminobutyramido]-3′,5′-dideoxy-α-L-arabinofuranosyl]uracil [Compound 154]",64 µg/mL,8 µg/mL,>512 µg/mL,>512 µg/mL,>512 µg/mL,8 µg/mL,128 µg/mL,>512 µg/mL,>512 µg/mL,>512 µg/mL
"1-[5′-[(2S,3S)-N^3-L-Alanyl-N^2-[N-([(1S)-1-carboxy-phenethyl]carbamoyl]-L-leucinyl]-N^3-methyl-2,3-diaminobutyramido]-3′,5′-dideoxy-α-L-arabinofuranosyl]uracil [Compound 166]",>512 µg/mL,>512 µg/mL,>512 µg/mL,>512 µg/mL,>512 µg/mL,16 µg/mL,256 µg/mL,>512 µg/mL,>512 µg/mL,512 µg/mL
"1-[5′[(2S,3S)-N^2-[N-[[(1S)-1-Carboxy-4-hydroxyphenethyl]carbamoyl]-L-4-fluorophenylalanyl)-N^3-L-phenylalanyl-N^3-methyl-2,3-diaminobutyramido]-3′,5′-dideoxy-β-L-arabinofuranosyl]uracil [Compound 106]",32 µg/mL,64 µg/mL,256 µg/mL,256 µg/mL,512 µg/mL,8 µg/mL,512 µg/mL,>512 µg/mL,>512 µg/mL,512 µg/mL
"CC(N)C(=O)N(C)C(C)C(NC(=O)C(Cc1ccc(F)cc1)NC(=O)NC(C(=O)O)c1ccccc1)C(=O)NCC1CC(O)C(n2ccc(=O)[nH]c2=O)O1 (mixture of isomers) [Compound 141, 1-[5′-[(2S,3S)-N^3-L-Alanyl-N^2-[N-[[α(R,S)-1-carboxy-phenmethyl]carbamoyl]-L-4-fluorophenylalanyl]-N^3-methyl-2,3-diaminobutyramido]-3′,5′-dideoxy-α-L-arabinofuranosyl]uracil]",>512 µg/mL,512 µg/mL,>512 µg/mL,>512 µg/mL,>512 µg/mL,16 µg/mL,>512 µg/mL,>512 µg/mL,>512 µg/mL,>512 µg/mL
"CC(N)C(=O)N(C)C(C)C(NC(=O)C(Cc1ccc(F)cc1)NC(=O)NC(C(=O)O)c1ccccc1)C(=O)NCC1CC(O)C(n2ccc(=O)[nH]c2=O)O1 (mixture of isomers) [Compound 142, 1-[5′-[(2S,3S)-N^3-L-Alanyl-N^2-[N-[[α(S,R)-1-carboxy-phenmethyl]carbamoyl]-L-4-fluorophenylalanyl]-N^3-methyl-2,3-diaminobutyramidol-3′,5′-dideoxy-α-L-arabinofuranosyl]uracil]",512 µg/mL,64 µg/mL,>512 µg/mL,>512 µg/mL,512 µg/mL,4 µg/mL,32 µg/mL,>512 µg/mL,>512 µg/mL,>512 µg/mL
"CC(C(NC(=O)C(Cc1ccccc1)NC(=O)NC(Cc1c[nH]c2ccccc12)C(=O)O)C(=O)NCC1CC(O)C(n2ccc(=O)[nH]c2=O)O1)N(C)C(=O)C(N)CCCCN [Compound 147, 1-[5′-[(2S,3S)-N^2-[N-[[(1S)-1-Carboxy-2-indol-3-ylethyl]carbamoyl]-L-phenylalanyl]-N^3-L-lysinyl-N^3-methyl-2,3-diaminobutyramido]-3′,5′-dideoxy-α-L-arabinofuranosyl]uracil]",32 µg/mL,16 µg/mL,>512 µg/mL,–,>512 µg/mL,>512 µg/mL,>512 µg/mL,>512 µg/mL,>512 µg/mL,–
"CC(C)C[C@H](NC(=O)N[C@@H](Cc1c[nH]c2ccccc12)C(=O)O)C(=O)N[C@H](C(=O)NC[C@H]1C[C@@H](O)[C@H](n2ccc(=O)[nH]c2=O)O1)[C@H](C)N(C)C(=O)[C@H](C)N [Compound 170, 1-[5′-[(2S,3S)-N^3-L-Alanyl-N^2-[N-[[(1S)-1-carboxy-2-indol-3-ylethyl)carbamoyl]-L-leucinyl]-N^3-methyl-2,3-diaminobutyramido]-3′,5′-dideoxy-α-L-arabinofuranosyl]uracil]",64 µg/mL,4 µg/mL,>512 µg/mL,–,128 µg/mL,2 µg/mL,1 µg/mL,>512 µg/mL,>512 µg/mL,–
"C[C@H](NC(=O)N[C@@H](Cc1c[nH]c2ccccc12)C(=O)O)C(=O)N[C@H](C(=O)NC[C@H]1C[C@@H](O)[C@H](n2ccc(=O)[nH]c2=O)O1)[C@H](C)N(C)C(=O)[C@@H](C)N [Compound 171, 1-[5′-[(2S,3S)-N^3-D-Alanyl-N^2-[N-[[(1S)-1-carboxy-2-indol-3-ylethyl]carbamoyl]-L-alanyl]-N^3-methyl-2,3-diaminobutyramido]-3′,5′-dideoxy-α-L-arabinofuranosyl]uracil]",512 µg/mL,32 µg/mL,>512 µg/mL,–,>512 µg/mL,16 µg/mL,128 µg/mL,>512 µg/mL,>512 µg/mL,–
"C[C@H](N)C(=O)N(C)[C@@H](C)[C@H](NC(=O)[C@H](C)NC(=O)N[C@@H](Cc1c[nH]c2ccccc12)C(=O)O)C(=O)NC[C@@H]1C[C@@H](O)[C@@H](n2ccc(=O)[nH]c2=O)O1 [Compound 172, 1-[5′-[(2S,3S)-N^3-L-Alanyl-N^2-[N-[[(1S)-1-carboxy-2-indol-3-ylethyl]carbamoyl]-L-alanyl]-N^3-methyl-2,3-diaminobutyramido]-3′,5′-dideoxy-α-D-ribofuranosyl]uracil]",64 µg/mL,4 µg/mL,>512 µg/mL,–,16 µg/mL,128 µg/mL,16 µg/mL,512 µg/mL,>512 µg/mL,–
Dihydropacidamycin 1 [Compound 5],64 µg/mL,16 µg/mL,>512 µg/mL,–,512 µg/mL,8 µg/mL,32 µg/mL,>512 µg/mL,>512 µg/mL,–
